# What was measured:
# Assay type in all cases: in vivo
# [1] = system: 6 Hz-induced psychomotor seizures in CD-1 mice; test: 6 Hz psychomotor seizure test; conditions: for mice protected from psychomotor seizure / incidence of psychomotor seizures: 1 h pretreatment; for incidence of psychomotor seizures: vs Vehicle
# Text: Male, experimentally naive CD-1 mice were used in these experiments. At a defined time following drug or vehicle pretreatment, all mice received an electrical stimulus (6 Hz, 0.2 ms pulse width, 3 s duration, 32 mA) via corneal electrodes moistened with saline (ECT unit 57800; Ugo Basile). Preliminary experiments established that these stimulus parameters elicited a psychomotor seizure, defined as the expression of at least one of the following behaviors: stun/immobility, forelimb clonus, straub tail, lateral head movement, in >95% of control animals. Protection was defined as complete absence of all the above behaviors within 20 s of stimulus delivery. The effective dose of compound necessary to protect against psychomotor seizures to 50% of controls (i.e. ED50) was determined by curve fitting program.
# (§1) Male mice (body wt. 20-40 g) were used for all studies. Mice were used in one of the following 4 seizure tests: maximal electroshock seizure (MES) test, subcutaneous injection of pentylenetetrazol (scPTZ) test, seizures induced by 6 Hz stimulation (6 Hz), and corneal kindled seizures. These tests were selected because no single test detects all known anti-epileptic drugs (AED's), but all currently known AED's are detected as active (i.e. prevent seizures) in at least one of these tests. Subjects were tested in one of the 4 seizure tests following a defined time after treatment with either test drug or vehicle control. Following administration of test drug or vehicle by either the oral, subcutaneous or intraperitoneal route, the animals were tested according to one of the methods outlined below (1-4). Typically the pretreatment time was 60 minutes although in some cases this varied from 30 min to 4 h.
# 3. 6 Hz Psychomotor Seizure Test:
# Male CD-1 mice received an electrical stimulus (6 Hz, 0.2 ms pulse width, 3 s duration, 32 mA) via corneal electrodes moistened with saline (ECT unit 57800; Ugo Basile). These stimulus parameters should elicit a psychomotor seizure, defined as the expression of at least one of the following behaviours: stun/immobility, forelimb clonus, straub tail, vibrissae tremor, lateral head movement, in >95% of control animals within 30 s of stimulus delivery. To establish drug efficacy, test drug or vehicle was administered at a defined timepoint prior to the 6 Hz test, to separate experimental groups. The effect of treatment on subsequent seizure was noted. Protection is defined as complete absence of all the above behaviours within 20 s of stimulus delivery. The experiment was terminated immediately once the endpoint was met.
# [2] = system: scPTZ-induced seizures in CD-1 mice; test: s.c. pentylenetetrazol seizure test (scPTZ test)
# Text: as §1
# 2. s.c. Pentylenetetrazol Seizure Test (PTZ Test):
# Male CD-1 mice received a single subcutaneous injection of pentylenetetrazol (PTZ: 85 mg/kg). This dose of PTZ should elicit a clonic seizure in >95% of control animals. Following PTZ injection, the animals were immediately transferred to single observation cages and observed continuously for 30 min. To establish drug efficacy, test drug or vehicle was administered at a defined timepoint prior to the PTZ administration, to separate experimental groups. The effect of treatment on subsequent seizure was noted. Protection is defined as complete absence of a clonic seizure, including a forelimb clonus, over the 30 min observation period. In the event of a seizure, the onset latency from PTZ injection was recorded. The experiment was terminated immediately once the endpoint was met, or in the case of protection, at the completion of the 30 min test period.
# [3] = system: MES-induced tonic seizures in CD-1 mice; test: Maximal electroshock test (MES test)
# Text: as §1
# 1. Maximal Electroshock Test (MES Test):
# Male CD-1 mice received a maximal electroshock (45 mA, 0.2 s duration, 60 Hz) via corneal electrodes moistened with saline (shock stimulator type 221; Harvard apparatus). This stimulus intensity should elicit a full tonic seizure in >95% of control animals. Protection is defined as absence of a full tonic seizure within 15 s of stimulus delivery. To establish drug efficacy, test drug or vehicle was administered at a defined timepoint prior to the MES test, to separate experimental groups. The experiment was terminated immediately once the endpoint was met.
# [4] = system: corneal kindled seizures in CD-1 mice; test: Mouse corneal kindling; conditions: 75 and 300 mg/kg; IP and oral routes
# Text: as §1
# 4. Mouse Corneal Kindling:
# Male CD-1 mice (body wt. 20-40 g) were used for these studies. There are 3 phases to the procedure: (1) kindling development phase, (2) kindling stability/persistence phase, and (3) drug testing phase.
# 1. […]
# Drug testing was conducted using a repeated measures design with mice receiving up to 4 doses of a test drug and control treatments in a counterbalanced sequence. […] For each stimulation, the kindling score was assessed according to the Racine (1972) rating scale. […]
# [5] = 75-600 mg/kg IP and oral routes
# [6] = 150, 300 and 600 mg/kg IP and 600 mg/kg oral
# [7] = 37.5-600 mg/kg IP and oral routes
compound,measurement,setting,value
"CCCCCCCCCC(=O)NC(=O)[C@H](CC)N1CCCC1=O [compound 22, (S)—N-(2-(2-oxopyrrolidin-1-yl)butanoyl)decanamide]",mice protected from psychomotor seizure,[1]; 600 mg/kg IP,all mice
same,incidence of psychomotor seizures,[1]; [5],dose-related decrease in the incidence of seizures
"CCCCCCCCCC(=O)NC[C@H](CC(=O)O)CC(C)C [compound 14, (S)-3-(decanamidomethyl)-5-methylhexanoic acid]",incidence of psychomotor seizures,[1]; [5],dose-related decrease in the incidence of seizures
same,mice protected from psychomotor seizure,[1]; 300-600 mg/kg IP,all mice
"CCCCC(CC)CCC(=O)NC(=O)[C@H](CC)N1CCCC1=O (stereo partly drawn) [compound 25, 4-ethyl-N—((S)-2-(2-oxopyrrolidin-1-yl)butanoyl)octanamide]","scPTZ-induced seizures (incidence, onset latency) vs vehicle control (FIGS. 12-13)",[2]; [6],reduced seizures
same,ScPTZ EC50 (mg/kg),[2]; Dose route IP,310 mg/kg
same,ScPTZ EC50 (mmol/kg),[2]; Dose route IP,0.95 mmol/kg
same,ScPTZ EC50 (mg/kg),[2]; Dose route PO,600 mg/kg
same,ScPTZ EC50 (mmol/kg),[2]; Dose route PO,1.85 mmol/kg
same,MES-induced tonic seizures vs vehicle control (FIG. 11),[3]; [6],reduced seizures
same,MES EC50 (mg/kg),[3]; Dose route IP,397 mg/kg
same,MES EC50 (mmol/kg),[3]; Dose route IP,1.22 mmol/kg
same,MES EC50 (mg/kg),[3]; Dose route PO,>600 mg/kg
same,MES EC50 (mmol/kg),[3]; Dose route PO,>1.85 mmol/kg
same,incidence of psychomotor seizures,[1]; [7],dose-related decrease in the incidence of seizures
same,mice protected from psychomotor seizure,[1]; 300-600 mg/kg IP,all mice
same,6 Hz EC50 (mg/kg),[1]; Dose route IP,46 mg/kg
same,6 Hz EC50 (mmol/kg),[1]; Dose route IP,0.14 mmol/kg
same,6 Hz EC50 (mg/kg),[1]; Dose route PO,50 mg/kg
same,6 Hz EC50 (mmol/kg),[1]; Dose route PO,0.15 mmol/kg
"CCCCCCCCC(=O)NC(=O)[C@H](CC)N1CCCC1=O [compound 21, (S)—N-(2-(2-oxopyrrolidin-1-yl)butanoyl)nonanamide]",incidence of psychomotor seizures,[1]; [5],dose-related decrease in the incidence of seizures
same,mice protected from psychomotor seizure,[1]; 300-600 mg/kg IP,all mice
"CCCCC1CCC(C(=O)NC(=O)[C@H](CC)N2CCCC2=O)CC1 (stereo partly drawn) [compound 26, (S)-4-butyl-N-(2-(2-oxopyrrolidin-1-yl)butanoyl)cyclohexane-1-carboxamide]","scPTZ-induced seizures (incidence, onset latency) vs vehicle control (FIGS. 15-16)",[2]; [6],reduced seizures
same,ScPTZ EC50 (mg/kg),[2]; Dose route IP,230 mg/kg
same,ScPTZ EC50 (mmol/kg),[2]; Dose route IP,0.68 mmol/kg
same,ScPTZ EC50 (mg/kg),[2]; Dose route PO,300 mg/kg
same,ScPTZ EC50 (mmol/kg),[2]; Dose route PO,0.89 mmol/kg
same,MES-induced tonic seizures vs vehicle control (FIG. 14),[3]; 300 and 600 mg/kg IP and 600 mg/kg oral,reduced seizures
same,MES EC50 (mg/kg),[3]; Dose route IP,>600 mg/kg
same,MES EC50 (mmol/kg),[3]; Dose route IP,>1.78 mmol/kg
same,MES EC50 (mg/kg),[3]; Dose route PO,>600 mg/kg
same,MES EC50 (mmol/kg),[3]; Dose route PO,>1.78 mmol/kg
same,incidence of psychomotor seizures,[1]; [7],dose-related decrease in the incidence of seizures
same,mice protected from psychomotor seizure,[1]; 300-600 mg/kg IP,all mice
same,6 Hz EC50 (mg/kg),[1]; Dose route IP,80 mg/kg
same,6 Hz EC50 (mmol/kg),[1]; Dose route IP,0.24 mmol/kg
same,6 Hz EC50 (mg/kg),[1]; Dose route PO,88 mg/kg
same,6 Hz EC50 (mmol/kg),[1]; Dose route PO,0.26 mmol/kg
"CCCCCCCCC(=O)NCC1(CC(=O)O)CCCCC1 [compound 4, 2-(1-(nonanamidomethyl)cyclohexyl)acetic acid]",mice protected from psychomotor seizure,[1]; 600 mg/kg IP,all mice
same,mice protected from psychomotor seizure,[1]; 600 mg/kg oral,No mice
same,incidence of psychomotor seizures,[1]; 150-600 mg/kg IP,dose-related decrease in the incidence of seizures
"CCCCCCCC(=O)NC(=O)[C@H](CC)N1CCCC1=O [compound 20, (S)—N-(2-(2-oxopyrrolidin-1-yl)butanoyl)octanamide]",scPTZ-induced seizures vs vehicle control (FIG. 9),[2]; 300 and 600 mg/kg IP,reduced seizures
same,ScPTZ EC50 (mg/kg),[2]; Dose route IP,>600 mg/kg
same,ScPTZ EC50 (mmol/kg),[2]; Dose route IP,>2.02 mmol/kg
same,ScPTZ EC50 (mg/kg),[2]; Dose route PO,>600 mg/kg
same,ScPTZ EC50 (mmol/kg),[2]; Dose route PO,>2.02 mmol/kg
same,MES-induced tonic seizures vs vehicle control (FIG. 7),[3]; 600 mg/kg IP,reduced seizures
same,MES EC50 (mg/kg),[3]; Dose route IP,>600 mg/kg
same,MES EC50 (mmol/kg),[3]; Dose route IP,>2.02 mmol/kg
same,MES EC50 (mg/kg),[3]; Dose route PO,>600 mg/kg
same,MES EC50 (mmol/kg),[3]; Dose route PO,>2.02 mmol/kg
same,6 Hz-induced seizures vs vehicle control (FIG. 8),"[1]; 75, 150, 300 or 600 mg/kg 1 hr pre-stimulation, 300 mg/kg at 2 and 4 hr, oral or IP",reduced seizures
same,6 Hz EC50 (mg/kg),[1]; Dose route IP,90 mg/kg
same,6 Hz EC50 (mmol/kg),[1]; Dose route IP,0.3 mmol/kg
same,6 Hz EC50 (mg/kg),[1]; Dose route PO,130 mg/kg
same,6 Hz EC50 (mmol/kg),[1]; Dose route PO,0.44 mmol/kg
same,corneal kindled seizures (Racine kindling score) vs vehicle control (FIG. 10),[4],reduced seizures
